Measured values reported in publication PMC5727262, “Molecular mechanism of K65 acetylation-induced attenuation of Ubc9 and the NDSM interaction” (Scientific Reports, 2017).
Peptide text beside a SMILES is read from it.

Legend:
Ac-Ubc9K65 = biological target: T1, Ac-Ubc9K65 (Homo sapiens, UniProt P63279); assay: ITC binding of sumoylation-motif peptides to K65-acetylated Ubc9; settings: 25 °C, pH 8.0, 20 mM potassium phosphate, 100 mM NaCl, 1:1 binding stoichiometry assumed, triplicate measurements
T1 construct: made in house; host or cells: E. coli BL21 (DE3) with pAcKRS-3 and pCDF PylT-1-Ubc9 (amber codon at K65), fed acetyl-lysine
T1 sequence (P63279 2-158): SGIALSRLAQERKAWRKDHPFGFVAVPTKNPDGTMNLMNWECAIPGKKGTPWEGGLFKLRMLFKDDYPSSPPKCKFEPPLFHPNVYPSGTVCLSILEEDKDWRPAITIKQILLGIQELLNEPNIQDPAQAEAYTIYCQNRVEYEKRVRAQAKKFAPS
Experimental: (§1) ITC binding experiments were used to quantify the effect of Ubc9 acetylation on NDSM substrate binding (Fig. 2A). […] The dissociation constants for Elk1 and CBP were 70 and 57 μM, respectively (Fig. 2C and D), which were roughly similar to the dissociation constant of 56 μM obtained for the more acidic Calpain2 (Fig. 2E). Contrary to our expectations, RanGAP1 bound more strongly than the NDSMs with a dissociation constant of 13 μM. […] Similarly, not every acidic residue from the NDSM contributed equally to Ubc9 binding and even positions ×1 and ×2 could be potentially deciding factors. We exploited the long acidic stretch of Calpain2 in additional studies described below to explain this phenomenon. […] The observed switching from exothermic versus endothermic binding of the NDSM versus SM containing peptides is surprising. We speculate that the long negatively charged tail of NDSM may interact with Ubc9 in such a way that it free up more Ubc9-bound water molecules, resulting in an overall entropy increase. More work need to be done to fully understand its implication in binding mechanism.
(§2) Figure 2 Effect of K65 acetylation on Ubc9 affinity for substrates. (A) Summary of the thermodynamic parameters obtained from triplicate isothermal titration calorimetry (ITC) measurements. Representative ITC thermograms for Ubc9 binding to the RanGAP1 (B), Elk1 (C), CBP (D), and Calpain2 (E) peptides. The heat absorbed (or released) post-injection, after correcting for the heat of dilution, is shown in lower panels. […]
(§3) The ITC experiments were repeated twice at 25 °C by a controlled 2 μl addition of peptide to 200 μl of WT or Ac-Ubc9K65 in pH 8.0 buffer containing 20 mM potassium phosphate and 100 mM NaCl using an iTC200 calorimeter (GE Healthcare, Parsippany, NJ, USA). The first data point of each experiment was excluded from analysis and the baseline-corrected data were analyzed using Origin 7.0 software assuming 1:1 binding stoichiometry.

Ubc9 (WT) = biological target: T2, Ubc9 (WT) (Homo sapiens, UniProt P63279); assay: ITC binding of sumoylation-motif peptides to WT Ubc9; settings: 25 °C, pH 8.0, 20 mM potassium phosphate, 100 mM NaCl, 1:1 binding stoichiometry assumed, triplicate measurements
T2 construct: made in house; host or cells: E. coli (stated as BL21 (DE3) for the acetylated variant)
T2 sequence (P63279 whole entry): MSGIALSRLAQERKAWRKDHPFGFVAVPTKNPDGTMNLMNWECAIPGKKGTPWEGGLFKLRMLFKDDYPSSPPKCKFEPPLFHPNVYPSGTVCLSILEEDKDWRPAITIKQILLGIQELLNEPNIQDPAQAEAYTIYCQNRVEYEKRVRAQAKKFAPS
Experimental: as §1, §2, §3

SMILES: CC(C)C[C@H](NC(=O)[C@H](CCC(=O)O)NC(=O)[C@H](CCC(=O)O)NC(=O)[C@H](CCCCN)NC(=O)[C@@H]1CCCN1C(=O)CNC(=O)[C@H](CCC(=O)O)NC(=O)[C@@H](NC(=O)[C@H](CCCCN)NC(=O)[C@@H](NC(=O)[C@H](CCC(=O)O)NC(=O)[C@@H]1CCCN1C(=O)[C@@H]1CCCN1C(=O)[C@H](CC(C)C)NC(=O)[C@H](C)NC(=O)[C@@H](N)CCCNC(=N)N)C(C)C)C(C)C)C(=O)N[C@@H](CCC(=O)O)C(=O)N[C@H](C(=O)N[C@@H](C)C(=O)NCC(=O)O)C(C)C [Elk1] (H-RALPPEVKVEGPKEELEVAG-OH)
- Kd (Ac-Ubc9K65): 103 µM
- Kd (Ubc9 (WT)): 70.2 ± 1.3 µM

SMILES: CC[C@H](C)[C@H](NC(=O)[C@H](CC(C)C)NC(=O)[C@H](Cc1ccc(O)cc1)NC(=O)[C@H](CCC(N)=O)NC(=O)[C@@H]1CCCN1)C(=O)N[C@@H](CCCCN)C(=O)N[C@@H](CC(C)C)C(=O)N[C@@H](CCC(=O)O)C(=O)N[C@@H](CCC(=O)O)C(=O)N[C@@H](CCC(=O)O)C(=O)N[C@@H](CC(=O)O)C(=O)N[C@@H](CCC(=O)O)C(=O)N[C@@H](CC(=O)O)C(=O)N[C@@H](CCC(=O)O)C(=O)N[C@@H](CCC(=O)O)C(=O)N[C@@H](CC(=O)O)C(=O)NCC(=O)N[C@@H](CCC(=O)O)C(=O)N[C@@H](CO)C(=O)NCC(=O)N[C@@H](CS)C(=O)N[C@H](C(=O)O)[C@@H](C)O [Calpain2] (H-PQYLIKLEEEDEDEEDGESGCT-OH)
- Kd (Ac-Ubc9K65): 80.3 ± 2.7 µM
- Kd (Ubc9 (WT)): 55.8 ± 3.3 µM

SMILES: CC[C@H](C)[C@H](NC(=O)[C@H](C)NC(=O)[C@H](CCCCN)NC(=O)[C@@H](NC(=O)[C@H](CCCCN)NC(=O)[C@H](CC(=O)O)NC(=O)[C@H](CCC(=O)O)NC(=O)[C@H](CO)NC(=O)[C@H](CCCCN)NC(=O)[C@H](CC(C)C)NC(=O)[C@H](CC(C)C)NC(=O)CNC(=O)[C@H](CCSC)NC(=O)[C@H](Cc1c[nH]cn1)NC(=O)[C@@H](NC(=O)[C@@H](N)CC(C)C)C(C)C)C(C)C)C(=O)N[C@@H](C)C(=O)N[C@@H](CC(N)=O)C(=O)N[C@@H](CC(C)C)C(=O)N[C@@H](Cc1ccc(O)cc1)C(=O)O [RanGAP1, reference compound] (H-LVHMGLLKSEDKVKAIANLY-OH)
- Kd (Ac-Ubc9K65): 13.5 ± 2.2 µM
- Kd (Ubc9 (WT)): 13.5 ± 0.9 µM

SMILES: CC(C)[C@H](NC(=O)[C@H](CCC(=O)O)NC(=O)[C@@H](NC(=O)[C@H](CCCCN)NC(=O)[C@@H](NC(=O)[C@H](CCC(=O)O)NC(=O)[C@@H]1CCCN1C(=O)[C@H](CCCCN)NC(=O)[C@H](CCCCN)NC(=O)[C@H](CCC(=O)O)NC(=O)[C@@H](N)CC(=O)O)C(C)C)C(C)C)C(=O)N[C@@H](CCCCN)C(=O)N[C@@H](CCC(=O)O)C(=O)N[C@@H](CCC(=O)O)C(=O)N[C@@H](CCC(=O)O)C(=O)N[C@@H](CCC(=O)O)C(=O)N[C@@H](CO)C(=O)N[C@@H](CO)C(=O)N[C@@H](CO)C(=O)N[C@@H](CC(N)=O)C(=O)O [CBP] (H-DEKKPEVKVEVKEEEESSSN-OH)
- Kd (Ac-Ubc9K65): 105 µM
- Kd (Ubc9 (WT)): 57.4 ± 2.8 µM
